Test results taken from PubChem BioAssay AID248 (DTP/NCI, 2004).
Values joined by “and” are separate entries in the source; they are usually repeats but may differ in a detail not shown here. Equal entries are not always repeated. Toxic doses and inconclusive results are not listed. Cut-off read from the data, not from the text of the source: active = T/C of 150% or more; inactive = T/C below 125%.

System: L1210 leukemia ip in BDF1 mice, survival T/C
Experiment: NCI In Vivo Anticancer Drug Screen. Data for tumor model L1210 Leukemia (intraperitoneal) in B6D2F1 (BDF1) mice
Conditions: higher = longer survival
Procedure, shortened: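 Transplanted-tumor mice were given test agent; controls received vehicle only. Survival readings from the two groups were divided (treated over control).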

[1] = endpoint: mean survival time, dose: 100.0 mg/kg/injection, schedule: Q01DX001 (ip), vehicle: carboxymethylcellulose (CMC)
[2] = endpoint: mean survival time, dose: 200.0 mg/kg/injection, schedule: Q01DX001 (ip), vehicle: carboxymethylcellulose (CMC)
[3] = endpoint: mean survival time, dose: 400.0 mg/kg/injection, schedule: Q01DX001 (ip), vehicle: carboxymethylcellulose (CMC)
[4] = endpoint: mean survival time, dose: 50.0 mg/kg/injection, schedule: Q01DX009 (ip), vehicle: saline
[5] = endpoint: mean survival time, dose: 100.0 mg/kg/injection, schedule: Q01DX009 (ip), vehicle: saline
[6] = endpoint: mean survival time, dose: 200.0 mg/kg/injection, schedule: Q01DX009 (ip), vehicle: saline with Tween-80
[7] = endpoint: mean survival time, dose: 200.0 mg/kg/injection, schedule: Q04DX003 (ip), vehicle: saline with Tween-80
[8] = endpoint: mean survival time, dose: 400.0 mg/kg/injection, schedule: Q04DX003 (ip), vehicle: saline with Tween-80
[9] = endpoint: mean survival time, dose: 100.0 mg/kg/injection, schedule: Q04DX003 (ip), vehicle: Klucel (hydroxypropylcellulose) (HPC)
[10] = endpoint: mean survival time, dose: 200.0 mg/kg/injection, schedule: Q04DX003 (ip), vehicle: Klucel (hydroxypropylcellulose) (HPC)
[11] = endpoint: mean survival time, dose: 400.0 mg/kg/injection, schedule: Q04DX003 (ip), vehicle: Klucel (hydroxypropylcellulose) (HPC)

Measured: T/C

CC(=O)Nc1cccc(OCCOc2ccc([N+](=O)[O-])cc2)c1
inactive: [1] 92 % of control | [2] 92 % of control | [3] 90 % of control

CC(=O)SC1CC(=O)OC1=O (configuration not stated)
inactive: [4] 96 % of control | endpoint: mean survival time, dose: 100.0 mg/kg/injection, schedule: Q01DX001 (ip), vehicle: saline 96 % of control | [5] 102 % of control | endpoint: mean survival time, dose: 200.0 mg/kg/injection, schedule: Q01DX001 (ip), vehicle: saline 104 % of control | endpoint: mean survival time, dose: 400.0 mg/kg/injection, schedule: Q01DX001 (ip), vehicle: saline 98 % of control

CC1(C)CC(=O)c2ccccc21
inactive: endpoint: mean survival time, dose: 25.0 mg/kg/injection, schedule: Q01DX009 (ip), vehicle: saline 101 % of control | [4] 94 % of control and 109 % of control | [5] 101 % of control and 102 % of control | endpoint: mean survival time, dose: 100.0 mg/kg/injection, schedule: Q04DX003 (ip), vehicle: saline 100 % of control | endpoint: mean survival time, dose: 200.0 mg/kg/injection, schedule: Q01DX009 (ip), vehicle: saline 104 % of control | endpoint: mean survival time, dose: 200.0 mg/kg/injection, schedule: Q04DX003 (ip), vehicle: saline 96 % of control | endpoint: mean survival time, dose: 400.0 mg/kg/injection, schedule: Q04DX003 (ip), vehicle: saline 102 % of control

ClCCN(CCCl)c1ccc(C=NCCCN=Cc2ccc(N(CCCl)CCCl)cc2Cl)c(Cl)c1
inactive: [1] 97 % of control | [2] 92 % of control | [3] 95 % of control

O=C[C@@H](CO)O[C@H](C=O)n1cnc2c(=O)[nH]cnc21
inactive: endpoint: mean survival time, dose: 35.0 mg/kg/injection, schedule: Q01DX009 (ip), vehicle: saline 116 % of control | endpoint: mean survival time, dose: 35.0 mg/kg/injection, schedule: Q01DX009 (ip), vehicle: water 122 % of control | endpoint: mean survival time, dose: 35.0 mg/kg/injection, schedule: Q01DX Z (ip), vehicle: water 120 % of control | endpoint: mean survival time, dose: 79.0 mg/kg/injection, schedule: Q01DX009 (oral), vehicle: saline 93 % of control | endpoint: mean survival time, dose: 119.0 mg/kg/injection, schedule: Q01DX009 (oral), vehicle: saline 110 % of control | endpoint: mean survival time, dose: 178.0 mg/kg/injection, schedule: Q01DX009 (oral), vehicle: saline 102 % of control | endpoint: mean survival time, dose: 267.0 mg/kg/injection, schedule: Q01DX009 (oral), vehicle: saline 110 % of control | endpoint: mean survival time, dose: 280.0 mg/kg/injection, schedule: Q01DX009 (ip), vehicle: saline 89 % of control | endpoint: mean survival time, dose: 400.0 mg/kg/injection, schedule: Q01DX009 (oral), vehicle: saline 102 % of control | endpoint: mean survival time, dose: 600.0 mg/kg/injection, schedule: Q01DX009 (oral), vehicle: saline 104 % of control
active: endpoint: mean survival time, dose: 70.0 mg/kg/injection, schedule: Q01DX009 (ip), vehicle: saline 188 % of control | endpoint: mean survival time, dose: 70.0 mg/kg/injection, schedule: Q01DX009 (ip), vehicle: water 155 % of control | endpoint: mean survival time, dose: 80.0 mg/kg/injection, schedule: Q01DX009 (ip), vehicle: saline 167 % of control | endpoint: mean survival time, dose: 98.0 mg/kg/injection, schedule: Q01DX006 (ip), vehicle: saline 219 % of control | endpoint: mean survival time, dose: 98.0 mg/kg/injection, schedule: Q ##X009 (ip), vehicle: saline 227 % of control | endpoint: mean survival time, dose: 98.0 mg/kg/injection, schedule: Q## X Z (ip), vehicle: saline 227 % of control | endpoint: mean survival time, dose: 120.0 mg/kg/injection, schedule: Q01DX009 (ip), vehicle: saline 167 % of control and 188 % of control | endpoint: mean survival time, dose: 125.0 mg/kg/injection, schedule: Q01DX009 (ip), vehicle: saline with Tween-80 161 % of control | endpoint: mean survival time, dose: 140.0 mg/kg/injection, schedule: Q01DX006 (ip), vehicle: saline 205 % of control | endpoint: mean survival time, dose: 140.0 mg/kg/injection, schedule: Q01DX009 (ip), vehicle: saline 176 % of control and 184 % of control | endpoint: mean survival time, dose: 140.0 mg/kg/injection, schedule: Q01DX009 (ip), vehicle: water 250 % of control | endpoint: mean survival time, dose: 140.0 mg/kg/injection, schedule: Q01DX Z (ip), vehicle: water 253 % of control | endpoint: mean survival time, dose: 140.0 mg/kg/injection, schedule: Q ##X009 (ip), vehicle: saline 246 % of control | endpoint: mean survival time, dose: 140.0 mg/kg/injection, schedule: Q## X Z (ip), vehicle: saline 246 % of control | endpoint: mean survival time, dose: 150.0 mg/kg/injection, schedule: Q01DX009 (ip), vehicle: saline with Tween-80 206 % of control | endpoint: mean survival time, dose: 175.0 mg/kg/injection, schedule: Q01DX009 (ip), vehicle: saline with Tween-80 215 % of control | endpoint: mean survival time, dose: 180.0 mg/kg/injection, schedule: Q01DX009 (ip), vehicle: saline 227 % of control and 251 % of control | [6] 439 % of control | [7] 165 % of control | endpoint: mean survival time, dose: 225.0 mg/kg/injection, schedule: Q01DX009 (ip), vehicle: saline with Tween-80 427 % of control | endpoint: mean survival time, dose: 250.0 mg/kg/injection, schedule: Q04DX003 (ip), vehicle: saline with Tween-80 172 % of control | endpoint: mean survival time, dose: 270.0 mg/kg/injection, schedule: Q01DX009 (ip), vehicle: saline 182 % of control | endpoint: mean survival time, dose: 300.0 mg/kg/injection, schedule: Q04DX003 (ip), vehicle: saline with Tween-80 245 % of control | endpoint: mean survival time, dose: 350.0 mg/kg/injection, schedule: Q04DX003 (ip), vehicle: saline with Tween-80 318 % of control | [8] 401 % of control | endpoint: median survival time, dose: 108.0 mg/kg/injection, schedule: Q01DX009 (ip), vehicle: water 166 % of control | endpoint: median survival time, dose: 180.0 mg/kg/injection, schedule: Q01DX009 (ip), vehicle: water 461 % of control

O=C(C#Cc1ccccc1)Nc1ccccc1
inactive: [9] 114 % of control | [10] 97 % of control | [11] 98 % of control

O=Cc1cc2c(cc1Cl)OCO2
inactive: endpoint: mean survival time, dose: 100.0 mg/kg/injection, schedule: Q04DX003 (ip), vehicle: saline with Tween-80 92 % of control | [7] 86 % of control | [8] 97 % of control

[Cl][Pt][Cl].[NH-]CCN1CC1
inactive: endpoint: mean survival time, dose: 5.0 mg/kg/injection, schedule: Q01DX009 (ip), vehicle: Klucel (hydroxypropylcellulose) (HPC) 114 % of control | endpoint: mean survival time, dose: 10.0 mg/kg/injection, schedule: Q01DX009 (ip), vehicle: Klucel (hydroxypropylcellulose) (HPC) 110 % of control | endpoint: mean survival time, dose: 20.0 mg/kg/injection, schedule: Q01DX009 (ip), vehicle: Klucel (hydroxypropylcellulose) (HPC) 98 % of control

C=C1C(=O)N2CCCC2C(=O)N1C (configuration not stated)
inactive: endpoint: mean survival time, dose: 75.0 mg/kg/injection, schedule: Q04DX002 (ip), vehicle: saline 94 % of control | endpoint: mean survival time, dose: 150.0 mg/kg/injection, schedule: Q04DX002 (ip), vehicle: saline 97 % of control | endpoint: mean survival time, dose: 300.0 mg/kg/injection, schedule: Q04DX002 (ip), vehicle: saline 87 % of control

Nc1nc(N)c(-c2ccc(Cl)cc2)c(CCc2cccc(NC(=O)c3cccc(S(=O)(=O)F)c3)c2)n1
inactive: endpoint: mean survival time, dose: 100.0 mg/kg/injection, schedule: Q01DX001 (ip), vehicle: saline with Tween-80 93 % of control | endpoint: mean survival time, dose: 200.0 mg/kg/injection, schedule: Q01DX001 (ip), vehicle: saline with Tween-80 95 % of control | endpoint: mean survival time, dose: 400.0 mg/kg/injection, schedule: Q01DX001 (ip), vehicle: saline with Tween-80 97 % of control

CC1(C)C(=NN)C(C)(C)C1O (configuration not stated)
inactive: endpoint: mean survival time, dose: 75.0 mg/kg/injection, schedule: Q01DX001 (ip), vehicle: saline 101 % of control | endpoint: mean survival time, dose: 150.0 mg/kg/injection, schedule: Q01DX001 (ip), vehicle: saline 104 % of control | endpoint: mean survival time, dose: 300.0 mg/kg/injection, schedule: Q01DX001 (ip), vehicle: saline 96 % of control

CC(=O)OCCC#CCCCO
inactive: endpoint: mean survival time, dose: 100.0 mg/kg/injection, schedule: Q01DX009 (ip), vehicle: saline with Tween-80 90 % of control | [6] 98 % of control | endpoint: mean survival time, dose: 400.0 mg/kg/injection, schedule: Q01DX009 (ip), vehicle: saline with Tween-80 97 % of control

CNC(=O)Nc1ccc(OC)cc1
inactive: endpoint: mean survival time, dose: 100.0 mg/kg/injection, schedule: Q01DX009 (ip), vehicle: Klucel (hydroxypropylcellulose) (HPC) 96 % of control | [9] 110 % of control | endpoint: mean survival time, dose: 200.0 mg/kg/injection, schedule: Q01DX009 (ip), vehicle: Klucel (hydroxypropylcellulose) (HPC) 100 % of control | [10] 107 % of control | endpoint: mean survival time, dose: 400.0 mg/kg/injection, schedule: Q01DX009 (ip), vehicle: Klucel (hydroxypropylcellulose) (HPC) 102 % of control | [11] 105 % of control
